Assays:
Format in all cases: biochemical
[1] = biological target: T1, MAO-B (monoamine oxidase-B) (Homo sapiens, UniProt P27338); experiment: fluorometric OxiRed-probe kit inhibition assay
T1 sequence (P27338 2-520): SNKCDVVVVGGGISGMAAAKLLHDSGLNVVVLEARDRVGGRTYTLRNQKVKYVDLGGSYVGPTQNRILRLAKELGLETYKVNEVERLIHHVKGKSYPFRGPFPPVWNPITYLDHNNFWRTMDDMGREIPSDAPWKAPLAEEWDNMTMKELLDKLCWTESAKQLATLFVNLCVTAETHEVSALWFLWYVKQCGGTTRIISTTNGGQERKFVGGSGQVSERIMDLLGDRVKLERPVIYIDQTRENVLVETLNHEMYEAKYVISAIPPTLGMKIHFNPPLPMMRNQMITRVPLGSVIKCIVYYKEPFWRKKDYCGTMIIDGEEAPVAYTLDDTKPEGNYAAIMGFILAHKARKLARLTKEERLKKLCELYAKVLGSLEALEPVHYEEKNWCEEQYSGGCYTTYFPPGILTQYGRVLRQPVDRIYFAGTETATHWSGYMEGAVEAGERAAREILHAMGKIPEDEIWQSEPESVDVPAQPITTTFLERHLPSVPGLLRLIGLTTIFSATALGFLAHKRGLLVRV

BACE1 (β-secretase) = BACE1 (β-secretase) (Homo sapiens, UniProt P56817); experiment: fluorescence kit substrate-cleavage inhibition assay
Aβ1–42 (amyloid-β 1-42) = Aβ1–42 (amyloid-β 1-42) (Homo sapiens, UniProt P05067); experiment: fluorescent-probe fibril aggregation inhibition kit assay
Chain of Aβ1–42 (amyloid-β 1-42) (P05067 672-713): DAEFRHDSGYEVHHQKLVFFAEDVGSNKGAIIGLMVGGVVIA

Chain of BACE1 (β-secretase) (P56817 46-457): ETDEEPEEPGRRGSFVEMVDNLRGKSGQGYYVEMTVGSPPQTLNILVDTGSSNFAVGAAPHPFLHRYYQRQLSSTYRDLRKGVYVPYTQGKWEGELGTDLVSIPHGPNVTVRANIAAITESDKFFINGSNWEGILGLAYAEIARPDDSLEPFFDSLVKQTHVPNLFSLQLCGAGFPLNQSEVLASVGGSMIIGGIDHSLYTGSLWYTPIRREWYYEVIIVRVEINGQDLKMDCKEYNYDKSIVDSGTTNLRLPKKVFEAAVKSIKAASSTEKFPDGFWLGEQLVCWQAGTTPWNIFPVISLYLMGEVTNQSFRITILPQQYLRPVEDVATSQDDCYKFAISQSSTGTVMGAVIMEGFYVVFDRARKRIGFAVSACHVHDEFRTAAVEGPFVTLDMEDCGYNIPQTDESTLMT

IC50 [1]	IC50 (BACE1 (β-secretase))	IC50 (Aβ1–42 (amyloid-β 1-42))	SMILES
2.07 µM	15.7 µM	0.874 µM	COc1cc(/C=C/C(=O)NCCc2ccc(O)c(OC)c2)ccc1O [compound 1, N-trans-feruloyl-3-methoxytyramine]
7.15 µM	37 µM	3.83 µM	COc1cc(/C=C/C(=O)NCCc2ccc(O)cc2)ccc1O [compound 2, N-trans-feruloyltyramine]
18 µM	110 µM	39.8 µM	COc1cc(/C=C/C(=O)NC[C@@H](O)c2ccc(O)cc2)ccc1O [compound 4, S-(−)-N-trans-feruloyloctopamine]
8.75 µM	34.1 µM	20.2 µM	O=C(/C=C/c1ccc(O)c(O)c1)NCCc1ccc(O)cc1 [compound 6, N-trans-caffeoyltyramine]
4.43 µM	16.4 µM	7.63 µM	COc1cc(/C=C/C(=O)NC[C@@H](OC)c2ccc(O)cc2)ccc1O [compound 7, S-(−)-3-(4-hydroxy-3-methoxyphenyl)-N-[2-(4-hydroxyphenyl)-methoxyethyl]acrylamide]

Reference: paper PMC9248040 (RSC Advances, 2022)
